In paper PMC3898987 (Bioorganic & Medicinal Chemistry, 2013):
Substitutions are numbered along the chain they refer to. Several values for one entry are separate records, joined by “and”; a condition that tells them apart may be missing. Equal entries are not always repeated.

What was measured:
Test in all cases: FlexStation membrane potential dye functional assay, HEK293 cells
Type in all cases: cell-based
Set-up in all cases: expressed in transfected cells; host or cells: HEK293
[1] = molecular target: T1, 5-HT3A receptor F130A (Homo sapiens, UniProt P46098, F125A); settings: 5-HT3A F130A
T1 sequence (P46098 24-478 F125A): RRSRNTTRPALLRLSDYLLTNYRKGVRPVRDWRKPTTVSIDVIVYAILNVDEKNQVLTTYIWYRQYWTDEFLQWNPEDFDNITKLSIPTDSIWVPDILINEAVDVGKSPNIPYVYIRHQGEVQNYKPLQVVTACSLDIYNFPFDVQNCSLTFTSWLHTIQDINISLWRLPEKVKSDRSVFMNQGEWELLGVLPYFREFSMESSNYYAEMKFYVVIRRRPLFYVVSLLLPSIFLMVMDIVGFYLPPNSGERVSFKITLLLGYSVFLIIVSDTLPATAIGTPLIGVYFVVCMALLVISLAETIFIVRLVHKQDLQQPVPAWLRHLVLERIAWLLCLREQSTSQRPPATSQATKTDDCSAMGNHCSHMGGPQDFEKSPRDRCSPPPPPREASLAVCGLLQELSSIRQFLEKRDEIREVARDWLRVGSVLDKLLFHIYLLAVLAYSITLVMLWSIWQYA
Protocol: (§1) Human embryonic kidney (HEK) 293 cells were cultured on 90 mm tissue culture plates at 37 °C and 7% CO2 in a humidified atmosphere. They were grown in DMEM:F12 (Dulbecco’s Modified Eagle’s Medium/Nutrient Mix F12 (1:1)) with GlutaMAX I™ containing 10% fetal calf serum and passaged when confluent. […] For FlexStation assays, transfected cells were plated on 96-well plates and incubated 1–2 days before assay.
(§2) Fluorometric studies were undertaken using a FlexStation® (Molecular Devices, Sunnyvale, CA, USA) as previously described.[11]
(§3) Fluorescence was measured every 2 s for 200 s. […] Concentration–response and inhibition curves were obtained for each mutant, and the fluorescence values were normalized to the maximal response.

[2] = molecular target: T2, WT 5-HT3AB receptor (Homo sapiens, UniProt O95264+P46098)
T2 sequence (P46098 24-478): T1 sequence (P46098 24-478 F125A) with A102F
T2 sequence (O95264 22-441): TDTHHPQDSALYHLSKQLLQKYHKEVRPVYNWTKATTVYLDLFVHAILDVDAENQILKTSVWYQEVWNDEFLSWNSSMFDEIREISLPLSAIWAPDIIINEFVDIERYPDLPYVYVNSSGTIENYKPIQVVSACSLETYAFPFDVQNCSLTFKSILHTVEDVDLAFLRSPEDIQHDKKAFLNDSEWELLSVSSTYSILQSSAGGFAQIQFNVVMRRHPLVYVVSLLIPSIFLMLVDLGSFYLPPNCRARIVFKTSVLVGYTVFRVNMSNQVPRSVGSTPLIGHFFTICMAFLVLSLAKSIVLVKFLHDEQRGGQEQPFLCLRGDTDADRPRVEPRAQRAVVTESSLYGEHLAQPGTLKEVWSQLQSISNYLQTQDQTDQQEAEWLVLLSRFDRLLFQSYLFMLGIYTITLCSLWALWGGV
Protocol: as §1, §2, §3

[3] = molecular target: T3, WT 5-HT3A receptor (Homo sapiens, UniProt P46098)
T3 sequence (P46098 24-478): T1 sequence (P46098 24-478 F125A) with A102F
Protocol: as §1, §2, §3

[4] = molecular target: T4, 5-HT3A receptor Y73F (Homo sapiens, UniProt P46098, Y68F); settings: 5-HT3A Y73F
T4 sequence (P46098 24-478 Y68F): T1 sequence (P46098 24-478 F125A) with Y45F, A102F
Protocol: as §1, §2, §3

[5] = molecular target: T5, 5-HT3A receptor D165K (Homo sapiens, UniProt P46098, D160K); settings: 5-HT3A D165K
T5 sequence (P46098 24-478 D160K): T1 sequence (P46098 24-478 F125A) with A102F, D137K
Protocol: as §1, §2, §3

[6] = inhibition of 5-HT (EC50 concentration) response, 45 min preincubation

SMILES	Hill Coefficient ([1]; 5-HT concentration-response)	Hill Coefficient ([2]; 5-HT concentration-response)	Hill Coefficient ([3]; 5-HT concentration-response)	Hill Coefficient ([4]; 5-HT concentration-response)	Hill Coefficient ([5]; 5-HT concentration-response)	IC50 [1, 6] [nM]	IC50 [2, 6] [nM]	IC50 [3, 6] [nM]	IC50 [4, 6] [nM]	IC50 [5, 6] [nM]
NCCc1c[nH]c2ccc(O)cc12 [5-HT, serotonin]	1.5 ± 0.2	1.3 and 1.3 ± 0.2	2.3 and 2.3 ± 0.2	2.3 ± 0.3	3.0 ± 0.3	–	–	–	–	–
O=C1c2cccc3c2[C@H](CCC3)CN1[C@@H]1CN2CCC1CC2 [Palonosetron]	–	–	–	–	–	4.4 ± 1.8	0.88 ± 0.15	0.83 ± 0.49	1.23 ± 0.15	1.3 ± 0.43
